Source: publication PMC12669040, “Tumour-specific STING agonist synthesis via a two-component prodrug system” (Nature Chemistry, 2025)
Where “and” joins values, the source holds several entries; their conditions need not be identical. Identical values can stand only once. Like-named read-outs stand apart in the source and are kept apart here.

Key:
MC38 tumours = conditions: for Tumor Size: individual mice, * = excluded once a death was recorded in the group
[1] = target: T1, wild-type human STING LBD (hSTINGwt 138-379) (Homo sapiens, UniProt Q86WV6, H232R); test: Isothermal titration calorimetry (ITC), reverse titration; assay type: binding
T1 construct: SUMO (N, cleaved yes); made in house; host or cells: Escherichia coli BL21 (DE3)
Experimental: Escherichia coli BL21 (DE3) (Thermo Scientific EC0114) was transformed with a pET28a plasmid (Genscript) harbouring the codon-optimized sequence of SUMO-hSTINGwt (aa138-379). Transformed BL21 cells were inoculated into LB medium (50 µg ml^−1 kanamycin) and incubated at 180 rpm, 37 °C overnight. The overnight culture was then diluted (1:100 dilution) in 2× YT medium (50 µg ml^−1 kanamycin) and incubated at 180 rpm, 37 °C until optical density at 600 nm (OD600) reached 0.6 (approximately 3 h). The bacterial culture was then cooled to 16 °C, induced with 0.5 mM isopropyl 1-thio-D-galactopyranoside and incubated overnight at 180 rpm, 16 °C. The bacterial cells were pelleted at 4,000g for 30 min, resuspended in 20 ml of lysis buffer (25 mM HEPES pH 7.5, 150 mM NaCl, 20 mM imidazole and 2 mM TCEP supplied with 2 tablets of cOmplete mini EDTA-free protease inhibitors) and disrupted by sonication on ice. The total lysate was clarified by centrifugation at 22,000g for 30 min. The supernatant was collected and filtered through a 0.45-µm filter (Millipore SLHAR33SS). The clarified lysate was then incubated on a roller with 10 ml bed volume of Ni-NTA resin (Thermo Scientific 88223) at 4 °C for 1 h. The Ni-NTA resin was then packed in a column, flushed with 20 ml of wash buffer (25 mM HEPES pH 7.5, 150 mM NaCl and 20 mM imidazole) and eluted with 40 ml of elution buffer (25 mM HEPES pH 8.0, 150 mM NaCl and 250 mM imidazole). The eluted protein was concentrated to approximately 5 ml (Millipore Amicon 10 kDa molecular weight cut-off (MWCO)) and buffer-exchanged into storage buffer (25 mM HEPES pH 7.5 and 150 mM NaCl). TCEP was then added to a final concentration of 2 mM, and 250 units of SUMO protease (Merck SAE0067) were added. The cleavage reaction mixture was left to stand at 4 °C overnight until LC–MS analysis indicated the completion of the cleavage reaction. The cleavage mixture was incubated with 10 ml bed volume of Ni-NTA resin on a roller at 4 °C for 1 h and packed in a disposable column. The flowthrough was collected, and the resin was further flushed with 20 ml of wash buffer. The eluted fractions were combined, concentrated and further purified by size-exclusion chromatography (Cytiva, Superdex 200 Increase 10/300 GL). The purified protein in storage buffer was concentrated to 330 µM (dimer concentration) as determined by bicinchoninic acid (BCA) assay, aliquoted, flash-frozen in liquid nitrogen and stored at −80 °C for future use.
The binding constants of purified dimers were measured by ITC (Malvern Panalytical AutoITC200) in a reverse-titration format. Stock DMSO solutions of each dimer were dissolved in titration buffer (25 mM HEPES pH 7.5 and 150 mM NaCl) to a final concentration of 25 µM and added to the titration cell. The syringe was filled with 250 µM of purified STING in a matching buffer. Titration was performed at 25 °C with the following parameters: 750 rpm stirring, 0.2 µl initial injection followed by 2-µl injections of the […] every 120 s. Titration of STING protein into blank buffer was separately performed and subtracted from the raw data before the analysis. The background-subtracted titration curves were fitted with the built-in Origin software using the standard one-site model.
Extended Data Fig. 2 Isothermal titration calorimetry (ITC) data for binding constant measurements. Purified hSTINGwt138-379 (250 μM of homodimer) was titrated into each dimer (25 μM) dissolved in a matching buffer (25 mM HEPES pH 7.5, 150 mM NaCl) at 25 °C and 750 rpm stirring. Binding constants were reported as the average from duplicate measurements.

[2] = system: STING pathway effectors (pSTING, pTBK1, pIRF3) in THP-1 Lucia ISG cells; test: Western blots of STING pathway activation; assay type: cell-based, human; conditions: 5 μM
Experimental: THP-1 Lucia ISG cells were maintained as described above. […] Cells were treated with cycloheximide (50 µg ml^−1) and incubated for 50 min at 37 °C. Treated cells were then combined with the growth medium containing SC2S dimer (5 µM final concentration) to 1 × 10^6 cells ml^−1 and incubated at 37 °C. At each timepoint, a portion (3 ml) of the cell suspension was withdrawn. Withdrawn cells were pelleted (300g, 3 min), washed with PBS (1 ml), pelleted again (300g, 3 min) and resuspended to a density of 1 × 10^7 cells ml^−1 in ice-cold lysis buffer (25 mM Tris pH 7.6, 150 mM NaCl, 1% NP-40, 1% sodium deoxycholate and 0.1% SDS) supplied with protease/phosphatase inhibitor tablets (Pierce A32961) and freshly prepared phenylmethylsulfonyl fluoride (1 mM). Lysates were further disrupted by sonication at low power (5 s × 3 cycles). Sonicated lysates were clarified by centrifugation at 4 °C (13,000g, 5 min). […] Samples were reduced and denatured at 95 °C for 5 min before being separated on a precast polyacrylamide gel (Invitrogen NuPAGE 4–12% Bis-Tris, 20 µg total protein per lane). Protein bands were then transferred to a polyvinylidene difluoride membrane (Invitrogen iBlot2). […]

T1 sequence (Q86WV6 138-379 H232R): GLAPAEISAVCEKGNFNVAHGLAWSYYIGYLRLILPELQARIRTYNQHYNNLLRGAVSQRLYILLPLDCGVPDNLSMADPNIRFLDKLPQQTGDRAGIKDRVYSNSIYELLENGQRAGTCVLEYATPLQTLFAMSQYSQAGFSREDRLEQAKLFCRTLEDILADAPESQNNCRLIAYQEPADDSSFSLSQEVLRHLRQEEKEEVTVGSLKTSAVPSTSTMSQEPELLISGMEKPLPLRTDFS

## COc1cc2cc(C(=O)CCC(=O)O)sc2cc1OC [MSA2]
MC38 tumours; day 39
  Tumor Size: 279.4986* mm^3
MC38 tumours; day 53
  Tumor Size: 0* mm^3
MC38 tumours; mouse, in vivo
  Survival: Days: 60 days and 49 days and 35 days

## COc1cc2sc(C(=O)CCC(=O)O)cc2cc1SCCSc1cc2cc(C(=O)CCC(=O)O)sc2cc1OC [SC2S]
[1]; 25 °C, average of duplicate measurements, read-out: Kd hSTINGwt (binding constant, ITC)
  Kd: 176 nM
[1]; ITC run _01, read-out: Kd
  Kd: 191 nM
[1]; ITC run _02, read-out: Kd
  Kd: 160 nM
[2]
  phosphorylation of major STING pathway proteins: confirmed the phosphorylation of major STING pathway proteins
